Data reported in patent publication US7183415B2, “Quinoline compound” (Takeda Pharmaceutical Company Limited, priority 2001, dated 2007).

Point of comparison: `CCNC(=O)CC1CCN(Cc2cnc3cc(NC(=O)c4ccc(-c5ccc(Cl)cc5)cc4)ccc3c2)CC1` [Example 91, 4′-chloro-N-[3-({4-[2-(ethylamino)-2-oxoethyl]-1-piperidinyl}methyl)-7-quinolinyl][1,1′-biphenyl]-4-carboxamide], melting point 250 °C. Against it:
- Cc1c(NC(=O)c2ccc(-c3ccc(F)cc3)cc2)ccc2cc(CN3CCCCCC3)cnc12 [Example 180, N-[3-(1-azepanylmethyl)-8-methyl-7-quinolinyl]-4′-fluoro[1,1′-biphenyl]-4-carboxamide] — lower, 166 to 168 °C
- CCN(CC)Cc1cnc2cc(NC(=O)c3ccc(-c4ccc(F)cc4)cc3)c(C)cc2c1 [Example 249, N-{3-[(diethylamino)methyl]-6-methyl-7-quinolinyl)-4′-fluoro[1,1′-biphenyl]-4-carboxamide] — lower, 145 to 148 °C
- Cc1c(NC(=O)c2ccc(-c3ccc(F)cc3)cc2)ccc2cc(CN3CCC(CC(=O)N4CCCCC4)CC3)cnc12 [Example 205, 4′-fluoro-N-[8-methyl-3-({4-[2-oxo-2-(1-piperidinyl)ethyl]-1-piperidinyl}methyl)-7-quinolinyl][1,1′-biphenyl]-4-carboxamide] — lower, 189 to 190 °C
- O=C(Nc1cc2ncc(CN3CCCC3)cc2cc1F)c1ccc(-c2ccc(Cl)cc2)cc1 [Example 51, 4′-chloro-N-[6-fluoro-3-(1-pyrrolidinylmethyl)-7-quinolinyl][1,1′-biphenyl]-4-carboxamide] — lower, 218 to 220 °C
- Cc1c(NC(=O)c2ccc(-c3ccc(F)cc3)c(F)c2)ccc2cc(CN3CCCC3)cnc12 [Example 153, 2,4′-difluoro-N-[8-methyl-3-(1-pyrrolidinylmethyl)-7-quinolinyl][1,1′-biphenyl]-4-carboxamide] — lower, 176 to 178 °C
- COc1ccc(-c2ccc(C(=O)Nc3cc4ncc(CN5CCCC5)cc4cc3Cl)cc2)cc1 [Example 67, N-[6-chloro-3-(1-pyrrolidinylmethyl)-7-quinolinyl]-4′-methoxy-[1,1′-biphenyl]-4-carboxamide] — lower, 184 °C
- CCNC(=O)CCCC1CCN(Cc2cnc3c(C)c(NC(=O)c4ccc(-c5ccc(F)cc5)cc4)ccc3c2)CC1 [Example 209, N-[3-({4-[4-(ethylamino)-4-oxobutyl]-1-piperidinyl}methyl)-8-methyl-7-quinolinyl]-4′-fluoro[1,1′-biphenyl]-4-carboxamide] — lower, 217 to 220 °C
- Cc1c(NC(=O)c2ccc(-c3ccc4c(c3)OCO4)cc2F)ccc2cc(CN3CCCC3)cnc12 (hydrate or solvate) [Example 141, 4-(1,3-benzodioxol-5-yl)-2-fluoro-N-[8-methyl-3-(1-pyrrolidinylmethyl)-7-quinolinyl]benzamide] — lower, 181 to 182 °C
- Cc1c(NC(=O)c2ccc(-c3ccc(Cl)cc3)cc2F)ccc2cc(CN3CCCC3)cnc12 [Example 146, 4′-chloro-3-fluoro-N-[8-methyl-3-(1-pyrrolidinylmethyl)-7-quinolinyl][1,1′-biphenyl]-4-carboxamide] — lower, 181 to 183 °C
- O=C(Nc1ccc2cc(CN3CCC(CO)CC3)cnc2c1)c1ccc(-c2ccc(F)cc2)cc1 [Example 45, 4′-fluoro-N-(3-{[4-(hydroxymethyl)-1-piperidinyl]methyl}-7-quinolinyl)[1,1′-biphenyl]-4-carboxamide] — lower, 191 to 195 °C
- Cc1c(NC(=O)c2ccc(-c3ccc4c(c3)CCO4)cc2)ccc2cc(CN3CCCC3)cnc12 [Example 113, 4-(2,3-dihydro-1-benzofuran-5-yl)-N-[8-methyl-3-(1-pyrrolidinylmethyl)-7-quinolinyl]benzamide] — lower, 176 to 177 °C
- Cc1c(NC(=O)c2ccc(-c3ccc(Cl)s3)cc2)ccc2cc(CN3CCCCCC3)cnc12 (hydrate or solvate) [Example 181, N-[3-(1-azepanylmethyl)-8-methyl-7-quinolinyl]-4-(5-chloro-2-thienyl)benzamide] — lower, 186 to 187 °C
- Cc1ccc(-c2ccc(C(=O)Nc3cc4ncc(CN5CCCC5)cc4cc3C)cc2F)cc1 [Example 234, 2-fluoro-4′-methyl-N-[6-methyl-3-(1-pyrrolidinylmethyl)-7-quinolinyl][1,1′-biphenyl]-4-carboxamide] — lower, 175 to 178 °C
- O=C(Nc1cc2ncc(CN3CCCC3)cc2cc1F)c1ccc(-c2ccc(C(F)(F)F)cc2)cc1 [Example 55, N-[6-fluoro-3-(1-pyrrolidinylmethyl)-7-quinolinyl]-4′-(trifluoromethyl)[1,1′-biphenyl]-4-carboxamide] — lower, 209 to 212 °C
- Cc1c(NC(=O)c2ccc(-c3ccc(Cl)s3)cc2F)ccc2cc(CN3CCCC3)cnc12 (hydrate or solvate) [Example 143, 4-(5-chloro-2-thienyl)-2-fluoro-N-[8-methyl-3-(1-pyrrolidinylmethyl)-7-quinolinyl]benzamide] — lower, 160 to 162 °C
- Cc1c(NC(=O)c2ccc(-c3ccccc3)cc2F)ccc2cc(CN3CCCCCC3)cnc12 (hydrate or solvate) [Example 183, N-[3-(1-azepanylmethyl)-8-methyl-7-quinolinyl]-3-fluoro[1,1′-biphenyl]-4-carboxamide] — lower, 151 to 153 °C
- Cc1cc2cc(CN3CCCCCC3)cnc2cc1NC(=O)c1ccc(-c2ccc(F)cc2)cc1 [Example 251, N-[3-(1-azepanylmethyl)-6-methyl-7-quinolinyl]-4′-fluoro[1,1′-biphenyl]-4-carboxamide] — lower, 170 to 174 °C
- Cc1c(NC(=O)c2ccc(-c3ccc(F)cc3)c(F)c2)ccc2cc(CN3CCCCCC3)cnc12 (hydrate or solvate) [Example 189, N-[3-(1-azepanylmethyl)-8-methyl-7-quinolinyl]-2,4′-difluoro[1,1′-biphenyl]-4-carboxamide] — lower, 162 to 163 °C
- Cc1cc2cc(CN3CCC(C(=O)N(C)C)CC3)cnc2cc1NC(=O)c1ccc(-c2ccc(F)cc2)cc1 [Example 274, 1-[(7-{[(4′-fluoro-1,1′-biphenyl-4-yl)carbonyl]amino}-6-methyl-3-quinolinyl)methyl]-N,N-dimethylpiperidine-4-carboxamide] — lower, 229 °C
- Cc1cc(C(=O)Nc2ccc3cc(CN4CCCC4)cnc3c2C)ccc1-c1ccc(F)cc1 [Example 160, 4′-fluoro-2-methyl-N-[8-methyl-3-(1-pyrrolidinylmethyl)-7-quinolinyl][1,1′-biphenyl]-4-carboxamide] — lower, 200 to 202 °C
- Cc1c(NC(=O)c2ccc(-c3ccccc3F)c(F)c2)ccc2cc(CN3CCCC3)cnc12 [Example 156, 2,2′-difluoro-N-[8-methyl-3-(1-pyrrolidinylmethyl)-7-quinolinyl][1,1′-biphenyl]-4-carboxamide] — lower, 139 to 140 °C
- CC(=O)NC1CCN(Cc2cnc3cc(NC(=O)c4ccc(-c5ccc(F)cc5)cc4)ccc3c2)C1 (stereo not shown) [Example 43, N-(3-{[3-(acetylamino)-1-pyrrolidinyl]methyl}-7-quinolinyl)-4′-fluoro[1,1′-biphenyl]-4-carboxamide] — not separable, 250 to 253 °C

In the case of `O=C(Nc1ccc2cc(CN3CCCCCC3)cnc2c1)c1ccc(-c2ccc(Cl)cc2)nc1` [Example 32, N-[3-(1-azepanylmethyl)-7-quinolinyl]-6-(4-chlorophenyl)nicotinamide], the melting point is reported as 233 °C (dec.).
For `O=C(Nc1ccc2cc(CN3CCCCCC3)cnc2c1)c1ccc(-c2ccccc2)cc1` [Example 31, N-[3-(1-azepanylmethyl)-7-quinolinyl][1,1′-biphenyl]-4-carboxamide], the melting point was 205 °C (dec.).
